Assay [1] deals with c-Met (Homo sapiens, UniProt P08581). As to the kind of experiment: Ki determination for the inhibition of c-Met, coupled enzyme system. The class given is biochemical. Conditions: 200 μM ATP, 10 μM polyGluTyr, 80 nM c-Met, 30° C. The method, boiled down: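 Coupled pyruvate kinase/lactate dehydrogenase NADH assay with 80 nM c-Met, 200 μM ATP, 10 μM polyGluTyr in pH 7.5 HEPES, 1.5% DMSO at 30° C. Compound (0.006–12.5 μM final, 12-point) preincubated 10 min; ATP started reaction, rates read over 10 min; Ki derived from rate versus inhibitor concentration.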

For assay [2], the target named is T1, JAK3 (Homo sapiens, UniProt P52333).
T1 sequence (P52333 1-1124): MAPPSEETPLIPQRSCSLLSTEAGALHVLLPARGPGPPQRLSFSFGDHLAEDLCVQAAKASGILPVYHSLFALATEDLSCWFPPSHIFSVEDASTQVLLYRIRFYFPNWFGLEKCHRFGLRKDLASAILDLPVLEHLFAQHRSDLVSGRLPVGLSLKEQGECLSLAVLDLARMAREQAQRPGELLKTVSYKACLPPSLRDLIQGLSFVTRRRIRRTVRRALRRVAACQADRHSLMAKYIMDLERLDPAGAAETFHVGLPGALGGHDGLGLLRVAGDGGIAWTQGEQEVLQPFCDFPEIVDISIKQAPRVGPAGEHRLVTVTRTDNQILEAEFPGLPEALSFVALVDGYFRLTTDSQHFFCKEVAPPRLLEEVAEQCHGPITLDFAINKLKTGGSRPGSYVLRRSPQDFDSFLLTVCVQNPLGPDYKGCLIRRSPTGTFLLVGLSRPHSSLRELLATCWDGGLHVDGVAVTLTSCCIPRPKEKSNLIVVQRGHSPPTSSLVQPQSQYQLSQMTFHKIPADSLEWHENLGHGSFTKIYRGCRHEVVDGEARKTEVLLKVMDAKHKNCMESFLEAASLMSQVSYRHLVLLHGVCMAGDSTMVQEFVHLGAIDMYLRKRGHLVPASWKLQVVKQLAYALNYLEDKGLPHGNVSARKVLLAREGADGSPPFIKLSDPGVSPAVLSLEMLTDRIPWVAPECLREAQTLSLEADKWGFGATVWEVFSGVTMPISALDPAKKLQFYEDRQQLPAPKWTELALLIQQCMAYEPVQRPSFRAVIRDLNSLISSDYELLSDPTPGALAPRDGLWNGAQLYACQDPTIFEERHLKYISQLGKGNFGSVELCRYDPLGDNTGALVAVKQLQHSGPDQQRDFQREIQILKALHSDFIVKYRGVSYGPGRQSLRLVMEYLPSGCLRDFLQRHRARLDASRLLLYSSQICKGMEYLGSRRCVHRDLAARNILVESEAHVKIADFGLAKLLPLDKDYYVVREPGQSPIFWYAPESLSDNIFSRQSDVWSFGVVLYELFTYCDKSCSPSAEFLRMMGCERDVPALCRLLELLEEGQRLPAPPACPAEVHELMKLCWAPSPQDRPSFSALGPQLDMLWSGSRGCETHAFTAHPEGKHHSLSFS
As to the kind of experiment: JAK3 inhibition assay (ELISA, Poly (Glu, Ala, Tyr) coated plates). The class given is biochemical. Conditions: 2 mM ATP, 60 minutes at 30° C. The method, boiled down: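 ELISA on Poly(Glu,Ala,Tyr) 6:3:1-coated plates with 2 mM ATP and 5 mM MgCl2. JAK enzyme started the reaction, run 60 min at 30° C. Phosphotyrosine was detected with HRP-conjugated 4G10 antibody and TMB, read at 450 nm, and IC50 was derived from optical densities.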
A general note: An ELISA detects its analyte on a solid surface through an enzyme-linked reagent.

What is called Ki is the equilibrium dissociation constant of an inhibitor or competing ligand from its target. Higher therefore signals a looser hold on the target.

Sequence of c-Met (P08581 25-1390): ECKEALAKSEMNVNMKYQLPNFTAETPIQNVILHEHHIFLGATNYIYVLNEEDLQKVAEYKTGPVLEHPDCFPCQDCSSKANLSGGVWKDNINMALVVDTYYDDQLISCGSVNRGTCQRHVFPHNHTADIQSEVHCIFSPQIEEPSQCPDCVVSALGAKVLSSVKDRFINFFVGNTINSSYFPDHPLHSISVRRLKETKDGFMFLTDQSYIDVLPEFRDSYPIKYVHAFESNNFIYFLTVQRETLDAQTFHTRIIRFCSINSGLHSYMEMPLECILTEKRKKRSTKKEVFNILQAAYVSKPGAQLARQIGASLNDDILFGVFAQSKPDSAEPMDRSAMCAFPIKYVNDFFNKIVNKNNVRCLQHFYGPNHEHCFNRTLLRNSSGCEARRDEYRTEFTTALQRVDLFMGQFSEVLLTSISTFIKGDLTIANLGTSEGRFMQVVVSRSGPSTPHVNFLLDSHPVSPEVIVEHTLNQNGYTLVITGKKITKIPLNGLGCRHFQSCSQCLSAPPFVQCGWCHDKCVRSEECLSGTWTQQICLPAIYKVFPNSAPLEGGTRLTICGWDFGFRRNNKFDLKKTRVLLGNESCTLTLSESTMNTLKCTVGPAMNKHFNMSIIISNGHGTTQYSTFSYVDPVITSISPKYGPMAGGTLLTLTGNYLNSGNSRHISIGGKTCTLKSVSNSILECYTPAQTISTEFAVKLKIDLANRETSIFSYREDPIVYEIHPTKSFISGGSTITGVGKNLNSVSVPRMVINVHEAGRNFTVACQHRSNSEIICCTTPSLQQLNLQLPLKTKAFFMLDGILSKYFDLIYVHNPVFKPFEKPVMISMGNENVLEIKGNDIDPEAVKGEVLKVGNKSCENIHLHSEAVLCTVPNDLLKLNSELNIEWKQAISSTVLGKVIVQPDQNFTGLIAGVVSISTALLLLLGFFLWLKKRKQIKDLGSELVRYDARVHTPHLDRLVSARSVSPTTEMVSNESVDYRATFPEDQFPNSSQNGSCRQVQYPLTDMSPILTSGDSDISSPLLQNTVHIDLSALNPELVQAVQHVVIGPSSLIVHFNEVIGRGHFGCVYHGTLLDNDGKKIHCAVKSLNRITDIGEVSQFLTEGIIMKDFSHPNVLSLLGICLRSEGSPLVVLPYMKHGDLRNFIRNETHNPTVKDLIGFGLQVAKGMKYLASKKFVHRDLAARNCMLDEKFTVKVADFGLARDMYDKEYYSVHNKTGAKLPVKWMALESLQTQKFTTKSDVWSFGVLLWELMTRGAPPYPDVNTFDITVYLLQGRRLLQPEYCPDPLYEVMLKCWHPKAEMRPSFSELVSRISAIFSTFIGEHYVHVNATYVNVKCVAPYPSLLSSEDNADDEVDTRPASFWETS

`Fc1cccc(-n2cnnc2-c2c[nH]c3ncc(-c4cccnc4)cc23)c1F` [Compound 113, 3-[4-(2,3-Difluoro-phenyl)-4H-[1,2,4]triazol-3-yl]-5-pyridin-3-yl-1H-pyrrolo[2,3-b]pyridine]: the results for the Ki in assay [1] and in assay [2] were under 200 nM and 1000 to 12500 nM, respectively.
For `Fc1cccc(-n2cnnc2-c2c[nH]c3ncc(-c4ccncc4)cc23)c1F` [Compound 114, 3-[4-(2,3-Difluoro-phenyl)-4H-[1,2,4]triazol-3-yl]-5-pyridin-4-yl-1H-pyrrolo[2,3-b]pyridine], in that order: under 200 nM and 1000 to 12500 nM.
For `Fc1cccc(-n2cnnc2-c2c[nH]c3ncc(-c4ccc(N5CCC[C@H]5CN5CCCC5)nc4)cc23)c1F` [Compound 115, 3-[4-(2,3-Difluoro-phenyl)-4H-[1,2,4]triazol-3-yl]-5-[6-(2-pyrrolidin-1-ylmethyl-pyrrolidin-1-yl)-pyridin-3-yl]-1H-pyrrolo[2,3-b]pyridine], in that order: under 200 nM and 1000 to 12500 nM.
`OC1CCN(c2ccc(-c3cnc4[nH]cc(-c5nncn5-c5cccc(F)c5F)c4c3)cn2)CC1` [Compound 116, 5′-{3-[4-(2,3-Difluoro-phenyl)-4H-[1,2,4]triazol-3-yl]-1H-pyrrolo[2,3-b]pyridin-5-yl}-3,4,5,6-tetrahydro-2H-[1,2′]bi-pyridinyl-4-ol]: the Ki in assay [1] is under 200 nM; in assay [2] it was 200 to 1000 nM.
In the case of `CN1CCCN(c2ccc(-c3cnc4[nH]cc(-c5nncn5-c5cccc(F)c5F)c4c3)cn2)CC1` [Compound 117, 3-[4-(2,3-Difluoro-phenyl)-4H-[1,2,4]triazol-3-yl]-5-[6-(4-methyl-[1,4]diazepan-1-yl)-pyridin-3-yl]-1H-pyrrolo [2,3-b]-pyridine], the results for the Ki in assay [1] and in assay [2] were under 200 nM and 1000 to 12500 nM, respectively.
For `Fc1cccc(-n2cnnc2-c2c[nH]c3ncc(-c4ccc(N5CCCC5)nc4)cc23)c1F` [Compound 118, 3-[4-(2,3-Difluoro-phenyl)-4H-[1,2,4]triazol-3-yl]-5-(6-pyrrolidin-1-yl-pyridin-3-yl)-1H-pyrrolo[2,3-b]pyridine], the inhibition constant Ki in assay [1] is under 200 nM; in assay [2], 200 to 1000 nM.
Taken in the same sequence, the figures for `CN(C)CCNc1ccc(-c2cnc3[nH]cc(-c4nncn4-c4cccc(F)c4F)c3c2)cn1` [Compound 119, N′-(5-{3-[4-(2,3-Difluoro-phenyl)-4H-[1,2,4]triazol-3-yl]-1H-pyrrolo[2,3-b]pyridin-5-yl}-pyridin-2-yl)-N,N-dimethyl-ethane-1,2-diamine] were under 200 nM and 1000 to 12500 nM.
For `Fc1cccc(-c2cnoc2-c2c[nH]c3ncc(/C=C/n4cncn4)cc23)c1F` [Compound 133, 3-[4-(2,3-Difluoro-phenyl)-isoxazol-5-yl]-5-(2-[1,2,4]triazol-1-yl-vinyl)-1H-pyrrolo[2,3-b]pyridine], in that order: under 200 nM and under 200 nM.
Taken in the same sequence, the figures for `Cc1noc(-c2c[nH]c3ncccc23)c1-c1cccc(F)c1F` [Compound 134, 3-[4-(2,3-Difluoro-phenyl)-3-methyl-isoxazol-5-yl]-1H-pyrrolo[2,3-b]pyridine] were 200 to 1000 nM and 200 to 1000 nM.
With `Cc1noc(-c2c[nH]c3ncc(-c4ccc(N5CCN(C)CC5)cc4)cc23)c1-c1cccc(F)c1F` [Compound 135, 3-[4-(2,3-Difluoro-phenyl)-3-methyl-isoxazol-5-yl]-5-[4-(4-methyl-piperazin-1-yl)-phenyl]-1H-pyrrolo[2,3-b]pyridine], the Ki in assay [1] and in assay [2] was under 200 nM in each case.
`Fc1cccc(-c2cnoc2-c2c[nH]c3ncc(C4=CCC(NCc5ccccc5)CC4)cc23)c1F` (stereo not drawn) [Compound 136, Benzyl-(4-{3-[4-(2,3-difluoro-phenyl)-isoxazol-5-yl]-1H-pyrrolo[2,3-b]pyridin-5-yl}-cyclohex-3-enyl)-amine]: the Ki in assay [1] and in assay [2] was under 200 nM each time.
In the case of `NC1CC=C(c2cnc3[nH]cc(-c4oncc4-c4cccc(F)c4F)c3c2)CC1` (stereo not drawn) [Compound 137, 4-{3-[4-(2,3-Difluoro-phenyl)-isoxazol-5-yl]-1H-pyrrolo [2,3-b]pyridin-5-yl}-cyclohex-3-enylamine], the Ki in assay [1] and in assay [2] was under 200 nM throughout.
For `CN(C)C1CC=C(c2cnc3[nH]cc(-c4oncc4-c4cccc(F)c4F)c3c2)CC1` (stereo not drawn) [Compound 138, (4-{3-[4-(2,3-Difluoro-phenyl)-isoxazol-5-yl]-1H-pyrrolo[2,3-b]pyridin-5-yl}-cyclohex-3-enyl)-dimethyl-amine], the inhibition constant Ki in assay [1] and in assay [2] was under 200 nM each time.
In the case of `Fc1cccc(-c2cnoc2-c2c[nH]c3ncc(C4=CCC(N5CCOCC5)CC4)cc23)c1F` (stereo not drawn) [Compound 139, 3-[4-(2,3-Difluoro-phenyl)-isoxazol-5-yl]-5-(4-morpholin-4-yl-cyclohex-1-enyl)-1H-pyrrolo[2,3-b]pyridine], the Ki in assay [1] and in assay [2] was under 200 nM in each case.
As for `CS(=O)(=O)NC1CC=C(c2cnc3[nH]cc(-c4oncc4-c4cccc(F)c4F)c3c2)CC1` (stereo not drawn) [Compound 140, N-(4-{3-[4-(2,3-Difluoro-phenyl)-isoxazol-5-yl]-1H-pyrrolo[2,3-b]pyridin-5-yl}-cyclohex-3-enyl)-methanesulfonamide], the Ki in assay [1] and in assay [2] was under 200 nM each time.
`Cn1ccc2c(-c3oncc3-c3cccc(F)c3F)c[nH]c2c1=O` [Compound 144, 3-[4-(2,3-Difluoro-phenyl)-isoxazol-5-yl]-6-methyl-1,6-dihydro-pyrrolo[2,3-c]pyridin-7-one]: the Ki in assay [1] fell in the range of 200 to 1000 nM; in assay [2], 1000 to 12500 nM.
For `O=c1[nH]ccc2c(-c3oncc3-c3cccc(F)c3F)c[nH]c12` [Compound 145, 3-[4-(2,3-Difluoro-phenyl)-isoxazol-5-yl]-1,6-dihydro-pyrrolo[2,3-c]pyridin-7-one], in that order: 1000 to 12500 nM and 200 to 1000 nM.
As to `Nc1[nH]c2ncccc2c1-c1oncc1-c1cccc(F)c1F` [Compound 152], the Ki in assay [1] and in assay [2] was 1000 to 12500 nM in each case.

For the origin of these results see patent publication US7446199B2, “Compositions useful as inhibitors of protein kinases” (Vertex Pharmaceuticals Incorporated, priority 2003, dated 2008).
